This note sets out measurements from patent JP2023117892A, “ヘプシジン結合ペプチド” (Public Interest Inc Foundation Oyokyo, priority 2022, dated 2023).

Positions of bridges follow the written chain, without caps; N, C: chain ends. Residues, ends and D or L forms follow the SMILES beside them. No end group written: not given here.

Assay [1] concerns the target T1, hepcidin (ヘプシジン) (Homo sapiens, UniProt P81172).
T1 sequence (P81172 60-84 limits assumed): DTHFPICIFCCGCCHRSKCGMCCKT
Nature of the assay: Bio-layer interferometry (BLI) of the peptide on biotinylated hepcidin (Octet K2). The format is binding. The arrangement: ビオチン化ヘプシジン(Bachem社製); purchased Bachem. As to conditions: peptide 2.5, 4, 6, 8 or 10 μM.

Assay [2] deals with HepG2 cells, human liver cancer-derived (ヒト肝癌由来細胞HepG2). Nature of the assay: Intracellular iron (ferritin ELISA) in HepG2 cells treated with hepcidin. The assay is classed as cell-based. The settings on record: Fig. 7A.
Assay [3] deals with COS-1 cells, monkey kidney-derived fibroblasts (サル腎臓由来線維芽細胞(COS-1)). Nature of the assay: Intracellular iron (ferritin ELISA) in FPN-EGFP-expressing COS-1 cells treated with hepcidin. The format is cell-based. As to conditions: COS-1 expressing FPN-EGFP, Fig. 7B.
Assay [4] has as its system C57/BL6 mice (マウス(C57/BL6)). Nature of the assay: Serum iron in mice given hepcidin. As to conditions: Fig. 7C. The format is in vivo, mouse.
Assay [5] relates to human ferroportin fused to EGFP (FPN-EGFP) (ヒトのフェロポーチン(FPN)にEGFPを融合させたタンパク質). The experiment in a line: Western blot of ferroportin (FPN-EGFP) in HEK293 cells treated with hepcidin. The format is cell-based. As to conditions: HEK293 expressing FPN-EGFP.
Assay [6] has as its system renal anemia model mice (腎性貧血モデルマウス). The experiment in a line: Effect of HBP in renal anemia model mice (adenine sulfate-induced renal failure). The format is in vivo, mouse.
Assay [7] concerns the target T1, hepcidin (ヘプシジン). Nature of the assay: Phage display screening (Ph.D-12 library) on hepcidin-immobilised beads. More on the design: ビオチン化ヘプシジン(Bachem社製); purchased Bachem. The settings on record: displayed on M13 phage pIII; most frequent sequence among 64 plaques after the 5th panning. The assay is classed as binding.
Assay [8] addresses T1, hepcidin (ヘプシジン). The experiment in a line: Binding of the 12-amino-acid peptide to hepcidin, linear versus cyclised.
Where [9] appears, read: peptide added simultaneously with hepcidin.
Setting [10] is: AdS-induced renal anemia mice, HBP day 15 to day 21 (7 times), blood on day 22, versus control (PBS), Fig. 4C-E.

For the compound `CSCC[C@@H]1NC(=O)[C@H](CO)NC(=O)[C@@H]2CCCN2C(=O)[C@H](Cc2c[nH]c3ccccc23)NC(=O)[C@H](CCSC)NC(=O)[C@H](CC(=O)O)NC(=O)[C@H](Cc2c[nH]c3ccccc23)NC(=O)[C@H](CO)NC(=O)[C@@H](NC(=O)[C@H](C)NC(C)=O)CSSC[C@@H](C(=O)NCC(N)=O)NC(=O)CNC(=O)[C@H](CCC(=O)O)NC(=O)[C@H](C)NC(=O)[C@H](CCCCN)NC(=O)[C@H](Cc2c[nH]c3ccccc23)NC(=O)[C@H](CC(=O)O)NC1=O` [HBP, ACSWDMWPSMDWKAEGCG] (Ac-ACSWDMWPSMDWKAEGCG-NH2; disulfide 2-17), the Kd at hepcidin (ヘプシジン) [1] (biotinylated hepcidin on streptavidin sensor chip, read-out: dissociation constant) was determined as 29 nM. In addition, on hepcidin (ヘプシジン) [1] (Fig. 3), the “specific binding to hepcidin” value is recorded as “ヘプシジンに特異的に結合することが確認された”. Moreover, the “intracellular iron (as ferritin)” value in assay [2] (setting [9]) is given as “細胞内鉄量の増加が抑制された”. Also, the “intracellular iron (as ferritin)” value in assay [3] (setting [9]) is “細胞内鉄量の増加が抑制された”. For the same compound, the serum iron entry in assay [4] (peptide given simultaneously with hepcidin) is reported as “血中鉄量の減少が抑制された”. Further, the “amount of ferroportin (FPN-EGFP)” value in assay [5] (peptide added simultaneously with human hepcidin, Fig. 6 lanes 4 and 5) was “FPN-EGFP量の低下が抑制された”. Also, in assay [6] (setting [10]), the “hematocrit (HCt)” value is listed as “有意に上昇した”, the “hemoglobin (Hb)” value is listed as “有意に上昇した” and the “red blood cell count (RBC)” value was “有意に上昇した”. Moreover, the “blood biochemistry showing improvement of anemia and renal failure” value in assay [6] (AdS-induced renal failure mice, HBP day 15 to day 21, day 22, BUN, CRE, serum iron, TSAT, ferritin, CRP, hepcidin, EPO, Fig. 5A-H) is “貧血の改善及び腎不全の改善を示す結果が確認された”.

As for WDMWPSMDWKAE, the “possibility of specific binding to hepcidin” value with hepcidin (ヘプシジン) [7] is listed as “ヘプシジンに特異的に結合する可能性が示された”. Also, the binding to hepcidin entry with hepcidin (ヘプシジン) [8] (cyclised form) is “ヘプシジンに特異的に結合する”; with hepcidin (ヘプシジン) [8] (linear form), “線状ではヘプシジンに結合しない”.

As to “ヘプシジン: human hepcidin (Peptide Institute, Inc.) (DTHFPICIFCCGCCHRSKCGMCCKT; ends and bridges not checked; cysteine pairing not given here; UniProt P81172 60-84, looked up) [reference compound]”, the “intracellular iron (as ferritin)” value in assay [2] (hepcidin alone) and in assay [3] (hepcidin alone) was “細胞内の鉄量は増加した” throughout. The serum iron result in assay [4] (hepcidin alone) was “血中の鉄量は減少した”. In addition, the “amount of ferroportin (FPN-EGFP)” value in assay [5] (hepcidin added alone, Fig. 6 lane 3) was “フェロポーチンの量(FPN-EGFP量)は低下した”.
